From article PMC9104152, “Phosphoproteomics Unravel HBV Triggered Rewiring of Host Phosphosignaling Events” (International Journal of Molecular Sciences, 2022)
pIC50, pKi: −log10 of the molar value.

Columns and labels:
[1] = tested on: HBV infection in HepG2-NTCP cells; assay: HBV pgRNA level by real-time qPCR in kinase inhibitor treated HBV infected HepG2-NTCP; format: cell-based, Hepatitis B virus; conditions: for HBV pgRNA Fold change (Treated/DMSO) / effect on pgRNA level (in words): 1 µM; for effect on pgRNA level (in words): both four dpi and seven dpi
From the text: (§1) HBV were generated from a stable transfected hepablastoma cell line (Hep38.7) that expresses HBV as described previously. Briefly, Hep38.7 (tet-off) cells were induced to produce HBV particles through tetracycline withdrawal. Twelve days after tetracycline removal, culture media containing HBV were harvested and filtered through a 0.22 µm polyethersulfone (PES) membrane filter (Corning, New York, NY, USA). The virus supernatant was then concentrated using a heparin column and eluted with high salt, followed by overnight dialysis in phosphate-buffered saline (PBS). Real-time quantitative PCR was used to quantify the genome copy number of the HBV DNA. For infection, HepG2-NTCP cells at 70% confluence 1-day post-seeding were first treated with synchronisation medium consisting of complete medium with 3% DMSO and 500 µM L-Mimosin for 24 h. the cells were then incubated for 30 min with complete medium containing 800 µM of EGTA at 37 °C in a humidified 5% CO2 incubator. After the removal of EGTA-containing medium, the cells were infected with HBV at a multiplicity of infection (MOI) of 3000 in the presence of 4% PEG 8000 and 2.5% DMSO in DMEM/F12 medium supplemented with 2% FBS for 24 h. For the mock infection, cells were incubated for 24-hour in 4% PEG 8000, 2.5% DMSO in DMEM/F12 medium supplemented with 2% FBS. Upon virus removal followed by washing with PBS four times, HBV-infected cells were cultured in post-infection medium consisting of DMEM/F12 medium with 2% FBS and 1% DMSO. The post-infection medium was replaced at four days post-infection (dpi) and infected cells were harvested at day seven dpi. For phosphoproteome analysis, five biological replicates each of mock and HBV-infected HepG2-NTCP were used.
(§2) Total RNA was extracted using the RNeasy Mini Kit (Qiagen, Hilden, Germany) and digested with DNase according to the manufacturer’s protocol. For cDNA synthesis, 250–400 ng of total RNA was reverse transcribed with the iScript cDNA Synthesis Kit (Bio-Rad, Hercules, CA, USA) following the manufacturer’s protocol. cDNA was adjusted to 5 ng/µL using nuclease-free water and 2 μL of cDNA per reaction was used for qPCR analysis. Total DNA was extracted from the cells using the DNeasy Blood and Tissue Kit (Qiagen, Hilden, Germany) according to the manufacturer’s protocol.
To determine pgRNA level after HBV infection, HBV pgRNA was quantified by real-time qPCR using two HBV-specific primers: pgRNA-Forward, 5′-[…]-3′, and pgRNA-Reverse, 5′-[…]-3′ [49]. The housekeeping gene, GAPDH, was amplified using GAPDH forward primer 5′-[…]-3′ and GAPDH reverse primer 5′-[…]-3′. The relative fold change of pgRNA between conditions was determined using the ΔΔct method. Real-time qPCR was performed with iTaq Universal SYBR Green Supermix (Bio-Rad, Hercules, CA, USA). To determine the copy number of intracellular cccDNA, a probe-based qPCR approach was used. cccDNA was amplified using cccDNA forward primer 5′-[…]-3′ and cccDNA reverse primer 5′-[…]-3′. The Taqman probe 56, FAM/[…]/ZEN/[…]/3IABkFQ was used. The cccDNA copy number was determined using a standard curve approach with a 10× serial-diluted cccDNA template, starting from 10ng (Standard rang 1 fg to 1 ng). The reaction was carried out using the Luna Univeral Probe qPCR mix (NEB, Ipswich, MA, USA). To determine the level of HBeAg secretion, the HBeAg CLIA kit (Autobio diagnostic, Zhengzhou, China) was used. This assay was performed on 50 µL of medium harvested at four or seven dpi. All experiments were performed in triplicates and repeated twice for two additional biological replicates. The p-value was calculated using Student’s t-test (two-tailed, * p-value < 0.05, ** p-value < 0.01).
HBV infection on HepG2-NTCP was carried out as described earlier. At one dpi, the kinase inhibitors (Table 1) were added to the post-infection medium after the washing and removal of viruses containing infection medium. […]

[2] = tested on: HepG2-NTCP cells; assay: Cytotoxicity assay (Cell-titer-GLO Luminescent Cell Viability Assay); format: cell-based, human
Procedure: (§3) The IC50 of kinase inhibitors was determined using the Cell-titer-GLO Luminescent Cell Viability Assay kit (Promega, Madison, WI, USA) according to the recommendations from the manufacturer. Briefly, 10,000 HepG2-NTCP cells were seeded into a 96-well plate before treatment with various kinase inhibitor concentrations. Cell viability was assayed at 24 h post-treatment.

[3] = tested on: HBV infection in HepG2-NTCP cells; assay: Intracellular cccDNA by probe-based qPCR in kinase inhibitor treated HBV infected HepG2-NTCP; format: cell-based; conditions: 1 µM
From the text: as §1
as §2, with “Total DNA was extracted from the cells using the DNeasy Blood and Tissue Kit (Qiagen, Hilden, Germany) according to the manufacturer’s protocol.” left out
To determine pgRNA level after HBV infection, HBV pgRNA was quantified by real-time qPCR using two HBV-specific primers: pgRNA-Forward, 5′-[…]-3′, and pgRNA-Reverse, 5′-[…]-3′ [49]. […] The relative fold change of pgRNA between conditions was determined using the ΔΔct method. […] The cccDNA copy number was determined using a standard curve approach with a 10× serial-diluted cccDNA template, starting from 10ng (Standard rang 1 fg to 1 ng). […] The p-value was calculated using Student’s t-test (two-tailed, * p-value < 0.05, ** p-value < 0.01). […]

[4] = tested on: HBV infection in HepG2-NTCP cells; assay: HBeAg secretion (HBeAg CLIA kit) in kinase inhibitor treated HBV infected HepG2-NTCP; format: cell-based; conditions: 1 µM
From the text: as §1
To determine pgRNA level after HBV infection, HBV pgRNA was quantified by real-time qPCR using two HBV-specific primers: pgRNA-Forward, 5′-[…]-3′, and pgRNA-Reverse, 5′-[…]-3′ [49]. The housekeeping gene, GAPDH, was amplified using GAPDH forward primer 5′-[…]-3′ and GAPDH reverse primer 5′-[…]-3′. The relative fold change of pgRNA between conditions was determined using the ΔΔct method. Real-time qPCR was performed with iTaq Universal SYBR Green Supermix (Bio-Rad, Hercules, CA, USA). To determine the copy number of intracellular cccDNA, a probe-based qPCR approach was used. cccDNA was amplified using cccDNA forward primer 5′-[…]-3′ and cccDNA reverse primer 5′-[…]-3′. The Taqman probe 56, FAM/[…]/ZEN/[…]/3IABkFQ was used. The cccDNA copy number was determined using a standard curve approach with a 10× serial-diluted cccDNA template, starting from 10ng (Standard rang 1 fg to 1 ng). […] The p-value was calculated using Student’s t-test (two-tailed, * p-value < 0.05, ** p-value < 0.01). […]

[5] = Cytotoxicity assay (Cell-titer-GLO Luminescent Cell Viability Assay); format: cell-based, human; conditions: human, HepG2-NTCP cells; HepG2-NTCP, cell viability 24 h post-treatment
Procedure: as §3

[6] = molecular target: CLKs; conditions: target CLKs; reported value, no reference given; cited from earlier work
[7] = molecular target: CDK5; conditions: target CDK5; reported value, no reference given; cited from earlier work
[8] = molecular target: CDK2; conditions: target CDK2; reported value, no reference given; cited from earlier work
[9] = molecular target: CDK1; conditions: target CDK1; reported value, no reference given; cited from earlier work

Structure (SMILES) | pIC50 [2] | Intracellular cccDNA Fold change (Treated/DMSO) ([3]; 4dpi) | Intracellular cccDNA Fold change (Treated/DMSO) ([3]; 7dpi) | HBV pgRNA Fold change (Treated/DMSO) ([1]; 4dpi) | HBV pgRNA Fold change (Treated/DMSO) ([1]; 7dpi) | effect on pgRNA level (in words) [1] | HBeAg Titer Fold change (Treated/DMSO) ([4]; 4dpi) | HBeAg Titer Fold change (Treated/DMSO) ([4]; 7dpi) | also measured
CN(C)c1nc2c(Br)c(Br)c(Br)c(Br)c2[nH]1 [DMAT] | < 3.30 | – | – | – | – | – | – | – | effect on pgRNA transcription (in words) ([1]; 10 µM, both four and seven dpi): reduction of pgRNA transcription
Cn1cc(-c2ccc3occ(-c4ccccc4-c4ccccc4)c3n2)cn1 [MU140] | – | 0.894 | 0.930 | 1.014 | 1.114 | no such reduction | 0.904 | 0.993 | –
Cn1cc(-c2ccc3occ(-c4cccc(-c5ccncc5)c4)c3n2)cn1 [MU1210] | – | 0.678 | 0.479 | 0.406 | 0.709 | reduction in the pgRNA level | 0.415 | 0.105 | IC50 at 24 h [5]: 16.7 µM; pKi [6]: 7.64
Nc1cc(Nc2ccc(S(N)(=O)=O)cc2)ncn1 [PNU112455A11] | < 3.30 | – | – | – | – | – | – | – | pKi [7]: 5.44; pKi [8]: 5.49
O=C1NC(=NCc2cccs2)S/C1=C\c1ccc2ncccc2c1 [RO-3306] | – | – | – | – | – | – | – | – | pKi [9]: 7.46
